{"source": "patent US20250195457A1", "about": "“PHARMACEUTICAL COMPOSITION FOR TREATMENT OF PARKINSON'S DISEASE” (Eisai R&D Management Co., Ltd., priority 2022, published 2025)", "system": "levodopa-induced dyskinesia model cynomolgus monkeys", "assay": "Test Example 3: dyskinesia score in levodopa-induced dyskinesia model monkeys", "type": "in vivo", "parameters": "key to Dyskinesia score: dyskinesia score 0 = normal home cage activity to 4 = severe stereotypy", "experimental": "A levodopa/carbidopa mixture containing 80 mg/kg of levodopa and 20 mg/kg of carbidopa and having a solution volume of 5 mL/kg was orally administered to Parkinson's disease model cynomolgus monkeys at the age of 6 to 7 prepared in the same way as in Test Example 1 for 8 consecutive days to provide levodopa-induced dyskinesia model cynomolgus monkeys. The induction of dyskinesia was determined based on the “dyskinesia score” in accordance with the following behavior evaluation items in the following test on activity in home cages, and animals having dyskinesia scores of 1 or more on day 7 of the repeated administration of the levodopa/carbidopa mixture were used.\nHome cage activities corresponding to dyskinesia scores • 0: Normal home cage activity (exploring or inactivity, able to drink water, plays with mirror or caging, climbing of the walls). • 1: Some interference with normal activity, however able to climb walls. • 2: Occasional exploration of cage, some stereotypy • 3: Little normal movement, lack of climbing of walls, clear stereotypy • 4: Lack of normal home cage activity, lack of normal exploratory behavior and movement, severe stereotypy\nSeven levodopa-induced dyskinesia model cynomolgus monkeys were randomized into 4 groups of approximately equal mean and variance in terms of body weight. On subsequent cycles 2, 3, and 4, the animals were crossed over to receive the other treatment. A wash out period of one week or more was set between cycles.\nOne of the seven animals was excluded from the evaluation of cycles 3 and 4 because it was unable to get up due to dyskinesia on day 8 in cycle 3 of the repeated administration of the levodopa/carbidopa mixture.\nBy the end of the study, each animal had received all the four treatments. Each substance was administered 1 hr. after the administration on day 8 of the repeated administration of the levodopa/carbidopa mixture. As a vehicle, an aqueous solution containing 0.43% (w/v) methyl cellulose 400, 10% (v/v) dimethyl sulfoxide (DMSO), and 4.5% (w/v) Cremophor (R) were used.\nBefore the administration, and 1 hr., 4 hrs., and 24 hrs. after the administration of the test substances, the dyskinesia scores of the animals were evaluated. The behavior evaluation was performed in a blinded manner. The dyskinesia scores of the groups were compared using Steel's test. The p-values of less than 0.05 were considered to be statistically significant.", "data": [{"smiles": "NS(=O)(=O)N[C@H]1c2c(F)cc(F)cc2CC1(F)F", "note": "[Compound (I), N-[(1S)-2,2,5,7-tetrafluoro-2,3-dihydro-1H-inden-1-yl]sulfamide]", "values": [{"measurement": "Dyskinesia score", "setting": "Compound (I) 25 mg/kg (G2), 1 hr. after administration", "result": "2.0 ± 0.0"}, {"measurement": "Dyskinesia score", "setting": "Compound (I) 25 mg/kg (G2), 4 hrs. after administration", "result": "1.6 ± 0.2"}, {"measurement": "Dyskinesia score", "setting": "Compound (I) 25 mg/kg (G2), 24 hrs. after administration", "result": "2.0 ± 0.0"}, {"measurement": "Dyskinesia score", "setting": "Compound (I) 25 mg/kg (G2), Pre (before administration)", "result": "1.7 ± 0.2"}, {"measurement": "Dyskinesia score", "setting": "Compound (I) 50 mg/kg (G3), 1 hr. after administration", "result": "1.8 ± 0.2"}, {"measurement": "Dyskinesia score", "setting": "Compound (I) 50 mg/kg (G3), 4 hrs. after administration", "result": "1.3 ± 0.2"}, {"measurement": "Mean value of the dyskinesia scores compared with other groups", "setting": "Compound (I) 50 mg/kg (G3), 4 hrs. after the administration, versus vehicle (G1) and istradefylline (G4)", "result": "lower as compared with the vehicle-treated group (G1) and the istradefylline-treated group (G4)"}, {"measurement": "Dyskinesia score", "setting": "Compound (I) 50 mg/kg (G3), 24 hrs. after administration", "result": "1.8 ± 0.2"}, {"measurement": "Dyskinesia score", "setting": "Compound (I) 50 mg/kg (G3), Pre (before administration)", "result": "1.7 ± 0.2"}]}]}
